In patent US20220401514A1, “ANTIMICROBIAL, BACTERIOPHAGE-DERIVED POLYPEPTIDES AND THEIR USE AGAINST GRAM-NEGATIVE AND ACID-FAST BACTERIA” (CONTRAFECT CORPORATION, priority 2019, published 2022):

Tests used:
[1] = system: Mycobacterium tuberculosis strains; assay: microbe, parasite or virus in culture
Procedure: MIC values for various Chp peptides were determined using the CLSI method for broth microdilution in 96-well microtiter format.
Next, MIC values for various Chp peptides were determined using the CLSI method above for broth microdilution in 96-well microtiter format for two different Mycobacterium tuberculosis strains. The MIC was determined as explained above for the NTM strains.

Salmonella typhimurium = assay: MIC against Salmonella typhimurium; format: cell-based; conditions: Salmonella typhimurium
[2] = system: P. aeruginosa strain CFS-1292; assay: LIVE/DEAD stain microscopy in 100% human serum; format: cell-based, Pseudomonas aeruginosa; conditions: 15 minutes, 10 μg/mL
Excerpt: Samples were visualized by BF and fluorescence microscopy (10 ms exposure). […] was used to label live cells, and PI was used to label damaged and dead cells.

[3] = system: carbapenamase-producing Enterobacteriaceae isolates; assay: MIC against CDC Carbapenamase Enterobacteriaceae panel (n = 53); format: cell-based
Excerpt: Additionally, a third panel of 53 carbapenamase-producing Enterobacteriaceae isolates were selected to represent a diversity of species and carbapenemases. See wwwn.cdc.gov/ARIsolateBank/Panel/PanelDetail?ID=8.

[4] = system: Pseudomonas aeruginosa isolates; assay: MIC against CDC Pseudomonas aeruginosa panel (n = 55); format: cell-based
Procedure: MIC values were determined using the methodology described above, i.e., the standard broth microdilution reference method defined by CLSI.

[5] = system: P. aeruginosa strain CFS-1292; format: cell-based, Pseudomonas aeruginosa
LPS = assay: Endotoxin neutralization, limulus amoebocyte lysate (LAL) enzyme assay, LPS binding; format: biochemical; conditions: LPS 0.8 EU/mL
Procedure: CHEM. […] The standard reference samples contained only LPS dissolved in pyrogen-free water. Solutions were mixed well and incubated at 24° C. for 1 hour, and the manufacturers' test procedure for quantitative detection of endotoxins was followed.

[6] = system: A. baumannii strain BAA-747 persister cells; assay: Activity against persister cells, A. baumannii; format: cell-based, Acinetobacter baumannii
[7] = Carbapenamase Enterobacteriaceae panel

NC[C@H]1O[C@H](O[C@H]2[C@H](O)[C@@H](O[C@H]3O[C@H](CO)[C@@H](O)[C@H](N)[C@H]3O)[C@H](N)C[C@@H]2N)[C@H](N)C[C@@H]1O [tobramycin, reference compound]
4 µg/mL: MIC ([1]; ATCC25177) | MIC ([1]; ATCC35817)

MRLKMARRRYRLPRRRSRRLFSRTALRMHPRNRLRRIMRGGIRF [Chp2]
28.0%: % LPS Bound (LPS; peptide concentration 1 μg/mL)
58.1%: % LPS Bound (LPS; peptide concentration 32 μg/mL)
27.0%: % LPS Bound (LPS; peptide concentration 2 μg/mL)
0.5 µg/mL: MIC ([3]; Bank No. 0114, Escherichia coli) | MIC ([3]; Bank No. 0116, Citrobacter freundii) | MIC ([3]; Bank No. 0117, Klebsiella pneumoniae) | MIC ([3]; Bank No. 0118, Escherichia coli) | MIC ([3]; Bank No. 0119, Escherichia coli) | MIC ([3]; Bank No. 0127, Salmonella Senftenberg) | MIC ([3]; Bank No. 0128, Escherichia coli) | MIC ([3]; Bank No. 0135, Klebsiella pneumoniae) | MIC ([3]; Bank No. 0136, Enterobacter cloacae) | MIC ([3]; Bank No. 0138, Klebsiella pneumoniae) | MIC ([3]; Bank No. 0140, Klebsiella pneumoniae) | MIC ([3]; Bank No. 0141, Klebsiella pneumoniae) | MIC ([3]; Bank No. 0142, Klebsiella pneumoniae) | MIC ([3]; Bank No. 0143, Klebsiella pneumoniae) | MIC ([3]; Bank No. 0149, Escherichia coli) | MIC ([3]; Bank No. 0153, Klebsiella pneumoniae) | MIC ([3]; Bank No. 0156, Proteus mirabilis) | MIC ([3]; Bank No. 0157, Citrobacter freundii) | MIC ([3]; Bank No. 0158, Klebsiella pneumoniae) | MIC50 [3, 7] | MIC ([4]; CDC Antibiotic-Resistant Bank No. 0229) | MIC ([4]; CDC Antibiotic-Resistant Bank No. 0230) | MIC ([4]; CDC Antibiotic-Resistant Bank No. 0231) | MIC ([4]; CDC Antibiotic-Resistant Bank No. 0232) | MIC ([4]; CDC Antibiotic-Resistant Bank No. 0233) | MIC ([4]; CDC Antibiotic-Resistant Bank No. 0234) | MIC ([4]; CDC Antibiotic-Resistant Bank No. 0235) | MIC ([4]; CDC Antibiotic-Resistant Bank No. 0236) | MIC ([4]; CDC Antibiotic-Resistant Bank No. 0237) | MIC ([4]; CDC Antibiotic-Resistant Bank No. 0238) | MIC ([4]; CDC Antibiotic-Resistant Bank No. 0242) | MIC ([4]; CDC Antibiotic-Resistant Bank No. 0243) | MIC ([4]; CDC Antibiotic-Resistant Bank No. 0245) | MIC ([4]; CDC Antibiotic-Resistant Bank No. 0260) | MIC ([4]; CDC Antibiotic-Resistant Bank No. 0270) | MIC ([4]; CDC Antibiotic-Resistant Bank No. 0768)
> 8 µg/mL: MIC ([3]; Bank No. 0121, Serratia marcescens) | MIC ([3]; Bank No. 0122, Serratia marcescens) | MIC ([3]; Bank No. 0123, Serratia marcescens) | MIC ([3]; Bank No. 0124, Serratia marcescens) | MIC ([3]; Bank No. 0130, Serratia marcescens) | MIC ([3]; Bank No. 0131, Serratia marcescens)
2.2 Log10 (CFU/mL): MIC Log10 (CFU/mL) Run #2 ([6]; A. baumannii BAA-747 persister cells, 1 hour at 37° C., Run #2, limit of detection 1.6-log10 CFU/mL)
1.8 Log10 (CFU/mL): MIC Log10 (CFU/mL) Average ([6]; A. baumannii BAA-747 persister cells, average of 3 runs)
1 µg/mL: MIC ([3]; Bank No. 0112, Klebsiella pneumoniae) | MIC ([3]; Bank No. 0113, Klebsiella pneumoniae) | MIC ([3]; Bank No. 0115, Klebsiella pneumoniae) | MIC ([3]; Bank No. 0125, Klebsiella pneumoniae) | MIC ([3]; Bank No. 0126, Klebsiella pneumoniae) | MIC ([3]; Bank No. 0129, Klebsiella pneumoniae) | MIC ([3]; Bank No. 0132, Enterobacter cloacae group) | MIC ([3]; Bank No. 0134, Raoultella ornithinolytica) | MIC ([3]; Bank No. 0139, Klebsiella pneumoniae) | MIC ([3]; Bank No. 0145, Klebsiella pneumoniae) | MIC ([3]; Bank No. 0146, Klebsiella pneumoniae) | MIC ([3]; Bank No. 0147, Klebsiella oxytoca) | MIC ([3]; Bank No. 0148, Klebsiella pneumoniae) | MIC ([3]; Bank No. 0152, Klebsiella pneumoniae) | MIC ([3]; Bank No. 0160, Klebsiella pneumoniae) | MIC ([3]; Bank No. 0164, Enterobacter cloacae complex) | MIC90 [3, 7] | MIC ([4]; CDC Antibiotic-Resistant Bank No. 0239) | MIC ([4]; CDC Antibiotic-Resistant Bank No. 0240) | MIC ([4]; CDC Antibiotic-Resistant Bank No. 0241) | MIC ([4]; CDC Antibiotic-Resistant Bank No. 0244) | MIC ([4]; CDC Antibiotic-Resistant Bank No. 0246) | MIC ([4]; CDC Antibiotic-Resistant Bank No. 0247) | MIC ([4]; CDC Antibiotic-Resistant Bank No. 0248) | MIC ([4]; CDC Antibiotic-Resistant Bank No. 0249) | MIC ([4]; CDC Antibiotic-Resistant Bank No. 0250) | MIC ([4]; CDC Antibiotic-Resistant Bank No. 0251) | MIC ([4]; CDC Antibiotic-Resistant Bank No. 0252) | MIC ([4]; CDC Antibiotic-Resistant Bank No. 0253) | MIC ([4]; CDC Antibiotic-Resistant Bank No. 0254) | MIC ([4]; CDC Antibiotic-Resistant Bank No. 0255) | MIC ([4]; CDC Antibiotic-Resistant Bank No. 0256) | MIC ([4]; CDC Antibiotic-Resistant Bank No. 0257) | MIC ([4]; CDC Antibiotic-Resistant Bank No. 0259) | MIC ([4]; CDC Antibiotic-Resistant Bank No. 0261) | MIC ([4]; CDC Antibiotic-Resistant Bank No. 0262) | MIC ([4]; CDC Antibiotic-Resistant Bank No. 0263) | MIC ([4]; CDC Antibiotic-Resistant Bank No. 0264) | MIC ([4]; CDC Antibiotic-Resistant Bank No. 0265) | MIC ([4]; CDC Antibiotic-Resistant Bank No. 0266) | MIC ([4]; CDC Antibiotic-Resistant Bank No. 0267) | MIC ([4]; CDC Antibiotic-Resistant Bank No. 0268) | MIC ([4]; CDC Antibiotic-Resistant Bank No. 0269) | MIC ([4]; CDC Antibiotic-Resistant Bank No. 0271) | MIC ([4]; CDC Antibiotic-Resistant Bank No. 0272) | MIC ([4]; CDC Antibiotic-Resistant Bank No. 0763) | MIC ([4]; CDC Antibiotic-Resistant Bank No. 0764) | MIC ([4]; CDC Antibiotic-Resistant Bank No. 0765) | MIC ([4]; CDC Antibiotic-Resistant Bank No. 0766) | MIC ([4]; CDC Antibiotic-Resistant Bank No. 0767) | MIC ([4]; CDC Antibiotic-Resistant Bank No. 0769) | MIC ([4]; CDC Antibiotic-Resistant Bank No. 0770) | MIC ([4]; CDC Antibiotic-Resistant Bank No. 0771) | MIC ([4]; CDC Antibiotic-Resistant Bank No. 0772) | MIC ([4]; CDC Antibiotic-Resistant Bank No. 0773) | MIC50 ([4]; Pseudomonas aeruginosa panel) | MIC90 ([4]; Pseudomonas aeruginosa panel)
reduction of live bacteria: killing of P. aeruginosa, Live/Dead Cell Viability Kit [2]
29.3%: % LPS Bound (LPS; peptide concentration 4 μg/mL)
3.1 log10 CFU/mL: log10 CFU/mL reduction as compared to buffer ([6]; A. baumannii persister cells, 1 hour at 37° C.)
2 µg/mL: MIC (Salmonella typhimurium) | MIC ([3]; Bank No. 0161, Enterbacter aerogenes) | MIC ([4]; CDC Antibiotic-Resistant Bank No. 0258)
71.0%: % LPS Bound (LPS; peptide concentration 64 μg/mL)
28.7%: % LPS Bound (LPS; peptide concentration 0.5 μg/mL)
3.1: Delta Log ([6]; A. baumannii BAA-747 persister cells, log10 CFU/mL reduction as compared to buffer)
40.8%: % LPS Bound (LPS; peptide concentration 16 μg/mL)
<1.25E−09: frequency (spontaneous resistance) ([5]; CAA media with agent at 4×MIC, resistant colonies after 48 hours / total CFUs)
1.5 Log10 (CFU/mL): MIC Log10 (CFU/mL) Run #1 ([6]; A. baumannii BAA-747 persister cells, 1 hour at 37° C., Run #1, limit of detection 1.6-log10 CFU/mL) | MIC Log10 (CFU/mL) Run #3 ([6]; A. baumannii BAA-747 persister cells, 1 hour at 37° C., Run #3, limit of detection 1.6-log10 CFU/mL)
31.0%: % LPS Bound (LPS; peptide concentration 8 μg/mL)
0.25 µg/mL: MIC ([3]; Bank No. 0120, Klebsiella pneumoniae) | MIC ([3]; Bank No. 0137, Escherichia coli) | MIC ([3]; Bank No. 0144, Kluyvera ascorbata) | MIC ([3]; Bank No. 0150, Escherichia coli) | MIC ([3]; Bank No. 0151, Escherichia coli) | MIC ([3]; Bank No. 0154, Enterobacter cloacae) | MIC ([3]; Bank No. 0155, Proteus mirabilis) | MIC ([3]; Bank No. 0159, Proteus mirabilis) | MIC ([3]; Bank No. 0162, Escherichia coli) | MIC ([3]; Bank No. 0163, Enterobacter cloacae) | MIC ([5]; P. aeruginosa CFS-1292, MIC underlying the 4×MIC selection)
demonstrate binding to LPS: LPS binding (LPS; […]-64 μg/mL, 24° C., 1 hour)
